Results from PMC9610943, “Truncated Pleurocidin Derivative with High Pepsin Hydrolysis Resistance to Combat Multidrug-Resistant Pathogens” (Pharmaceutics, 2022).
Where no end group is shown, it is not given here.

What was measured:
E. coli G92 (mcr-1) = test: microbe, parasite or virus in culture; type: cell-based; conditions: G92 (mcr-1)
Experimental: (§1) S. aureus ATCC 29213, E. coli ATCC 25922, S. enteritidis ATCC 13076 and A. baumannii ATCC 19609 were obtained from the American Type Culture Collection (ATCC). The remaining strains used in the experiment were all preserved strains in our laboratory. All strains were cultured in nutrient broth overnight to the logarithmic phase at 37 °C prior to each experiment.
(§2) The MICs of all drugs were determined by micro-broth dilution method according to CLSI 2018 guidelines. Briefly, a single colony of the bacterial strain was transferred to 1 mL of Mueller Hilton broth (MHB) and overnight at 37 °C and then 10 μL were cultured in a new 1 mL medium for 4 to 6 h, and then the bacterial culture at the logarithmic phase was diluted to 1 × 10^6 CFUs/mL. The assay was performed by adding 100 μL of each peptide solution at various concentrations (0.25 to 128 μg/mL) and 100 μL of diluted bacterial culture to different wells of a 96-well microtiter plate (Corning, NY, USA). After incubation at 37 °C for 16 to 18 h and then read its MIC value. MIC value is defined as the lowest drug concentration without visible bacteria.

A. baumannii ATCC 19609 = test: microbe, parasite or virus in culture; type: cell-based; conditions: ATCC 19609
Experimental: as §1, §2

E. coli G6 (blaNDM-5) = test: microbe, parasite or virus in culture; type: cell-based; conditions: G6 (blaNDM-5)
Experimental: as §1, §2

[1] = test system: S. enteritidis ATCC 13076; test: microbe, parasite or virus in culture; type: cell-based; conditions: ATCC 13076
Experimental: as §1, §2

P. aeruginosa PA14 = test: microbe, parasite or virus in culture; type: cell-based; conditions: PA14
Experimental: as §1, §2

E. coli ATCC 25922 = test: microbe, parasite or virus in culture; type: cell-based; conditions: ATCC 25922
Experimental: as §1, §2

E. coli B3-1 (tet(X4)) = test: microbe, parasite or virus in culture; type: cell-based; conditions: B3-1 (tet(X4))
Experimental: as §1, §2

E. coli CP131 (mcr-3) = test: microbe, parasite or virus in culture; type: cell-based; conditions: CP131 (mcr-3)
Experimental: as §1, §2

[2] = test system: E. faecalis A4 (VRE, VanA); test: microbe, parasite or virus in culture; type: cell-based; conditions: A4 (VRE, VanA)
Experimental: as §1, §2

S. aureus G16 (RIF^R) = test: microbe, parasite or virus in culture; type: cell-based; conditions: S. aureus G16 (RIF^R); micro-broth dilution CLSI 2018, MHB, 37 °C, 16 to 18 h
Experimental: as §1, §2

E. coli 1F28 (tet(X4)) = test: microbe, parasite or virus in culture; type: cell-based; conditions: 1F28 (tet(X4))
Experimental: as §1, §2

[3] = test system: P. aeruginosa (VIM + tmexCD1-torJ1); test: microbe, parasite or virus in culture; type: cell-based; conditions: VIM + tmexCD1-torJ1
Experimental: as §1, §2

[4] = test system: S. aureus 215 (cfr + LZD^R); test: microbe, parasite or virus in culture; type: cell-based; conditions: S. aureus 215 (cfr + LZD^R); micro-broth dilution CLSI 2018, MHB, 37 °C, 16 to 18 h
Experimental: as §1, §2

E. coli C3 (blaNDM-1) = test: microbe, parasite or virus in culture; type: cell-based; conditions: C3 (blaNDM-1)
Experimental: as §1, §2

S. aureus ATCC 29213 = test: microbe, parasite or virus in culture; type: cell-based; conditions: ATCC 29213
Experimental: as §1, §2

[5] = test system: E. coli B2 (blaNDM-5 + mcr-1); test: microbe, parasite or virus in culture; type: cell-based; conditions: B2 (blaNDM-5 + mcr-1)
Experimental: as §1, §2

[6] = test system: P. cibarius HNCF44W (blaNDM-1+ tet(X6)); test: organism not typed; type: cell-based
Experimental: as §1, §2

MRSA T144 [7] = test: microbe, parasite or virus in culture; type: cell-based, Staphylococcus aureus; conditions: T144
Experimental: as §1, §2

MRSA 1530 = test: microbe, parasite or virus in culture; type: cell-based, Staphylococcus aureus; conditions: 1530
Experimental: as §1, §2

E. coli B2 = type: cell-based; conditions: for MIC after treatment at 121 °C / MIC in DMEM (10%) / MIC in Plasma (10%) / MIC in Serum (10%) / MIC in presence of Ca^2+ / MIC in presence of K^+ / MIC in presence of Mg^2+ / MIC in presence of Na^+ / MIC, Control: B2; for MIC after Papain treatment / MIC after Pepsin treatment / MIC after Trypsin treatment / MIC after treatment at 40 °C / MIC after treatment at 60 °C / MIC after treatment at 80 °C / MIC after treatment at 100 °C / MIC after treatment at pH 2 / MIC after treatment at pH 4 / MIC after treatment at pH 6 / MIC after treatment at pH 8 / MIC after treatment at pH 10 / MIC after treatment at pH 12: B2, 1 h
Experimental: as §2
(§3) Then, the antibacterial activity of the peptides affected by different temperatures and pH were determined according to the determination steps of MICs test.
(§4) In MHB medium, Na^+, K^+, Mg^2+ and Ca^2+ with the final concentrations of 10 mM, fetal bovine serum, plasma or DMEM medium (Hyclone, Logan, UT, USA) with the final concentrations of 10% was added, and then MIC values were measured to evaluate the effects of different cations, serum and plasma on the antibacterial activity of peptides.
(§5) The peptide was incubated with protease (pepsin, trypsin and papain) (Solarbio, Beijing, China) with a final concentration of 1 mg/mL at 37 °C for 1 h, then the mixture of peptide and protease was heated at 100 °C for 30 min, then centrifuged at 13,000× g for 30 min, and the supernatant was taken for MIC determination.

MRSA T144 [8] = type: cell-based, Staphylococcus aureus; conditions: for MIC after treatment at 121 °C / MIC in DMEM (10%) / MIC in Plasma (10%) / MIC in Serum (10%) / MIC in presence of Ca^2+ / MIC in presence of K^+ / MIC in presence of Mg^2+ / MIC in presence of Na^+ / MIC, Control: T144
Experimental: as §2, §3, §4, §5

GWKKFFKKWKHVWK [GK-4]
16 µg/mL: MIC (P. aeruginosa PA14) | MIC [2] | MIC (E. coli 1F28 (tet(X4))) | MIC [3] | MIC (MRSA 1530)
>128 µg/mL: MIC in presence of Ca^2+ (E. coli B2) | MIC after Papain treatment (E. coli B2) | MIC after Trypsin treatment (E. coli B2) | MIC in presence of Ca^2+ (MRSA T144 [8]) | MIC after Papain treatment (MRSA T144 [8]; T144, 1 h) | MIC after Trypsin treatment (MRSA T144 [8]; T144, 1 h)
4 µg/mL: MIC (E. coli G92 (mcr-1)) | MIC (A. baumannii ATCC 19609) | MIC (E. coli G6 (blaNDM-5)) | MIC [1] | MIC (E. coli B3-1 (tet(X4))) | MIC (S. aureus ATCC 29213) | MIC [6] | MIC (MRSA T144 [7]) | MIC in DMEM (10%) (E. coli B2) | MIC in Serum (10%) (E. coli B2) | MIC after treatment at 121 °C (MRSA T144 [8]) | MIC in Plasma (10%) (MRSA T144 [8]) | MIC in presence of K^+ (MRSA T144 [8]) | MIC, Control (MRSA T144 [8]) | MIC after treatment at 100 °C (MRSA T144 [8]; T144, 1 h) | MIC after treatment at pH 2 (MRSA T144 [8]; T144, 1 h) | MIC after treatment at pH 4 (MRSA T144 [8]; T144, 1 h) | MIC after treatment at pH 6 (MRSA T144 [8]; T144, 1 h) | MIC after treatment at pH 8 (MRSA T144 [8]; T144, 1 h) | MIC after treatment at pH 10 (MRSA T144 [8]; T144, 1 h) | MIC after treatment at pH 12 (MRSA T144 [8]; T144, 1 h)
1 µg/mL: MIC after treatment at pH 2 (E. coli B2) | MIC after treatment at pH 4 (E. coli B2) | MIC after treatment at pH 8 (E. coli B2) | MIC after treatment at pH 10 (E. coli B2)
8 µg/mL: MIC (E. coli ATCC 25922) | MIC (S. aureus G16 (RIF^R)) | MIC [4] | MIC in Serum (10%) (MRSA T144 [8]) | MIC in presence of Mg^2+ (MRSA T144 [8])
2 µg/mL: MIC (E. coli CP131 (mcr-3)) | MIC (E. coli C3 (blaNDM-1)) | MIC [5] | MIC after treatment at 121 °C (E. coli B2) | MIC in Plasma (10%) (E. coli B2) | MIC in presence of K^+ (E. coli B2) | MIC in presence of Na^+ (E. coli B2) | MIC, Control (E. coli B2) | MIC after Pepsin treatment (E. coli B2) | MIC after treatment at 40 °C (E. coli B2) | MIC after treatment at 60 °C (E. coli B2) | MIC after treatment at 80 °C (E. coli B2) | MIC after treatment at 100 °C (E. coli B2) | MIC after treatment at pH 6 (E. coli B2) | MIC after treatment at pH 12 (E. coli B2) | MIC in DMEM (10%) (MRSA T144 [8]) | MIC in presence of Na^+ (MRSA T144 [8]) | MIC after treatment at 40 °C (MRSA T144 [8]; T144, 1 h) | MIC after treatment at 60 °C (MRSA T144 [8]; T144, 1 h) | MIC after treatment at 80 °C (MRSA T144 [8]; T144, 1 h)
32 µg/mL: MIC in presence of Mg^2+ (E. coli B2)

GWGSFFKKAAHVGKHVGKAALTHYL [Pleu, Pleurocidin]
8 µg/mL: MIC [2] | MIC (MRSA 1530) | MIC after treatment at 121 °C (MRSA T144 [8]) | MIC in presence of Mg^2+ (MRSA T144 [8])
>128 µg/mL: MIC in presence of Ca^2+ (E. coli B2) | MIC after Papain treatment (E. coli B2) | MIC after Trypsin treatment (E. coli B2) | MIC in presence of Ca^2+ (MRSA T144 [8]) | MIC after Papain treatment (MRSA T144 [8]; T144, 1 h) | MIC after Trypsin treatment (MRSA T144 [8]; T144, 1 h)
4 µg/mL: MIC (E. coli 1F28 (tet(X4))) | MIC [3] | MIC (S. aureus ATCC 29213) | MIC in DMEM (10%) (E. coli B2) | MIC in Serum (10%) (MRSA T144 [8]) | MIC after treatment at 100 °C (MRSA T144 [8]; T144, 1 h) | MIC after treatment at pH 2 (MRSA T144 [8]; T144, 1 h) | MIC after treatment at pH 4 (MRSA T144 [8]; T144, 1 h) | MIC after treatment at pH 8 (MRSA T144 [8]; T144, 1 h) | MIC after treatment at pH 10 (MRSA T144 [8]; T144, 1 h) | MIC after treatment at pH 12 (MRSA T144 [8]; T144, 1 h)
64 µg/mL: MIC after Pepsin treatment (MRSA T144 [8]; T144, 1 h)
1 µg/mL: MIC (E. coli G92 (mcr-1)) | MIC (E. coli G6 (blaNDM-5)) | MIC [1] | MIC (P. aeruginosa PA14) | MIC (E. coli ATCC 25922) | MIC (E. coli B3-1 (tet(X4))) | MIC (E. coli CP131 (mcr-3)) | MIC (E. coli C3 (blaNDM-1)) | MIC in Serum (10%) (E. coli B2) | MIC in presence of K^+ (E. coli B2) | MIC in presence of Na^+ (E. coli B2) | MIC after treatment at 40 °C (E. coli B2) | MIC after treatment at 60 °C (E. coli B2) | MIC after treatment at 80 °C (E. coli B2) | MIC after treatment at pH 2 (E. coli B2) | MIC after treatment at pH 4 (E. coli B2) | MIC after treatment at pH 6 (E. coli B2) | MIC after treatment at pH 8 (E. coli B2) | MIC after treatment at pH 10 (E. coli B2) | MIC after treatment at pH 12 (E. coli B2) | MIC after treatment at 60 °C (MRSA T144 [8]; T144, 1 h)
<0.25 µg/mL: MIC in Plasma (10%) (E. coli B2)
128 µg/mL: MIC in presence of Mg^2+ (E. coli B2) | MIC after Pepsin treatment (E. coli B2)
2 µg/mL: MIC (A. baumannii ATCC 19609) | MIC (S. aureus G16 (RIF^R)) | MIC [4] | MIC [5] | MIC [6] | MIC (MRSA T144 [7]) | MIC after treatment at 121 °C (E. coli B2) | MIC, Control (E. coli B2) | MIC after treatment at 100 °C (E. coli B2) | MIC in DMEM (10%) (MRSA T144 [8]) | MIC in Plasma (10%) (MRSA T144 [8]) | MIC in presence of K^+ (MRSA T144 [8]) | MIC in presence of Na^+ (MRSA T144 [8]) | MIC, Control (MRSA T144 [8]) | MIC after treatment at 40 °C (MRSA T144 [8]; T144, 1 h) | MIC after treatment at 80 °C (MRSA T144 [8]; T144, 1 h) | MIC after treatment at pH 6 (MRSA T144 [8]; T144, 1 h)
